From US8003812B2, “C10 cyclopentyl ester substituted taxanes” (priority 2004, dated 2011) come the findings set out here.

Read-outs that look alike come from different tables or passages of the source.

Data set [1] relates to HCT 116 human colon carcinoma. The data set is described as follows: In vitro cytotoxicity, cell colony formation assay, HCT116. The data set is classed as cell-based. As to the method:
(§1) The cells were incubated in a CO2 incubator at 37° C. for 5 h for attachment to the bottom of Petri dishes. The compound of the present invention was made up fresh in medium at ten times the final concentration, and then 0.3 mL of this stock solution was added to the 2.7 mL of medium in the dish. The cells were then incubated with drugs for 72 h at 37° C. At the end of incubation the drug-containing media were decanted, the dishes were rinsed with 4 mL of Hank's Balance Salt Solution (HBSS), 5 mL of fresh medium was added, and the dishes were returned to the incubator for colony formation. The cell colonies were counted using a colony counter after incubation for 7 days. Cell survival was calculated and the values of IC50 (the drug concentration producing 50% inhibition of colony formation) were determined for each tested compound.

Data set [2] concerns Sprague-Dawley rats. Briefly: In vivo toxicity assessment in rats, oral. Also on record: species or system rat. As to conditions: for Rat tox score PO: summary score. The procedure: (§2) Toxicity was assessed in 250-300g Sprague-Dawley rats and three rats were used per dose group. Three dose groups of the test compound, (i.e., 3 mg/kg, 9 mg/kg and 12 mg/kg for intravenous administration; 15 mg/kg, 30 mg/kg and 40 mg/kg) and 1 control group constituted a study. Animals were observed and clinical chemistry data collected at days 4 and 10. Rats were euthanized on day 11 and the nerves were excised and fixed upon euthanization for further examination.
(§3) Each rat is scored as described below and a final toxicity score that incorporates all parameters is assigned. A dead rat is assigned a score of zero. Most of the parameters contribute a positive value towards a total possible score of 130. For body weight, white blood cell, and platelet decreases, recovery is considered. […] The total score is divided by 13 to put it on a scale from 0 to 10.

For data set [3], the system named is VM46 (resistant variant of human colon carcinoma HCT 116). Briefly: In vitro cytotoxicity, cell colony formation assay, VM46. In kind it is cell-based. The procedure:
as §1
Identical assessments were carried out using VM46 (resistant variant of human colon carcinoma HCT 116 obtained from Dr. Li-Xi, M.D, Ph.D., California Pacific Medical Center, CA).

Data set [4] deals with Sprague-Dawley rats. Briefly: In vivo toxicity assessment in rats, intravenous. The note with it: IV; for Rat tox score IV: summary score. The procedure: as §2, §3
Data set [5] relates to human pancreatic tumor xenograft Panc-1. As to conditions: Panc-1, best score 10.
Experimental: The tumor used for this study was maintained in athymic nude mice. A tumor fragment (1 mm^3) was implanted s.c. into the right flank of each test mouse. Tumors were monitored twice weekly and then daily as their volume approached 200-400 mm^3 with a mean of 250-300 mm^3. On Day 1 of the study, the animals were sorted into treatment groups with tumor sizes of 171.5-320.0 mm^3 and group mean tumor sizes of 212.6-216.0 mm^3. Tumor size, in mm^3, was calculated from the following formula:
[formula] where w=width and l=length in mm of the tumor. Tumor weight was estimated with the assumption that 1 mg is equivalent to 1 mm^3 of tumor volume. […] All treatments were administered orally, once on Day 1 (qd×1). […] In all groups, the dosing volume of 0.6 mL/20 g mouse was scaled to the body weight of each animal. Each animal was euthanized when its neoplasm reached the predetermined endpoint size (1200 mm^3). The time to endpoint (TTE) for each mouse was calculated by the following equation:
(§4) [formula] where TTE is expressed in days, endpoint volume is in mm^3, b is the intercept, and m is the slope of the line obtained by linear regression of a log-transformed tumor growth data set. The data set is comprised of the first observation that exceeded the study endpoint volume and the three consecutive observations that immediately preceded the attainment of the endpoint volume. […] Animals classified as TR (treatment-related) deaths or NTRM (non-treatment-related metastasis) deaths are assigned a TTE value equal to the day of death. Animals classified as NTR (non-treatment-related) deaths are excluded from TTE calculations. Treatment efficacy was determined from tumor growth delay (TGD), which is defined as the increase in the median TTE for a treatment group compared to the control group: TGD=T−C, expressed in days, or as a percentage of the median TTE of the control group:
[formula] where: • T=median TTE for a treatment group and • C=median TTE for control Group 1.
(§5) Treatment may cause partial regression (PR) or complete regression (CR) of the tumor in an animal. In a PR response, the tumor volume is 50% or less of its Day 1 volume for three consecutive measurements during the course of the study, and equal to or greater than 13.5 mm^3 for one or more of these three measurements. In a CR response, the tumor volume is less than 13.5 mm^3 for three consecutive measurements during the course of the study. An animal with a CR response at the termination of a study is additionally classified as a long-term tumor-free survivor (LTTFS).
With respect to toxicity, the animals were weighed daily on Days 1-5, then twice weekly until the completion of the study. The mice were examined frequently for overt signs of any adverse, drug-related side effects. Acceptable toxicity for the maximum tolerated dose (MTD) of a cancer drug in mice is defined by the NCl as a group mean body-weight (BW) loss of less than 20% during the test, and not more than one toxic death among ten treated animals. The log rank test was employed to analyze the significance of the difference between the TTE values of a drug-treated group and the vehicle-treated control group. The log rank test analyzes the data for all animals except the NTR deaths. The two-tailed statistical analyses were conducted at P=0.05. The group median tumor growth curves show the median tumor volume (MTV) as a function of time. When an animal exited the study due to tumor size or TR death, the final tumor volume recorded for the animal was included with the data used to calculate the median volume at subsequent time points.
Data set [6] concerns HT29 (human colon carcinoma) xenograft. The note with it: HT29, best score 10.
Text: Score=10*(TWd1−TWdn)/TWd1, where
TWd1=tumor weight on day 1
(§6) TWDn=lowest tumor weight on day 10 or later
(§7) Thus the best score for complete regression would be 10.
Data set [7] deals with DLD-1 (resistant human colon carcinoma). Briefly: In vitro cytotoxicity, MTT assay, DLD-1. The data set is classed as cell-based.
In data set [8] the test system is HT29 (human colon carcinoma) xenograft. As to conditions: single dose IV.
Text: Score=10*(TWd1−TWdn)/TWd1, where
TWd1=tumor weight on day 1
as §6, §7
Data set [9] concerns human pancreatic tumor xenograft Panc-1. The note with it: single dose IV.
Text: as §4, §5
With respect to toxicity, the animals were weighed daily on Days 1-5, then twice weekly until the completion of the study. The mice were examined frequently for overt signs of any adverse, drug-related side effects. […] The log rank test was employed to analyze the significance of the difference between the TTE values of a drug-treated group and the vehicle-treated control group. The log rank test analyzes the data for all animals except the NTR deaths. The two-tailed statistical analyses were conducted at P=0.05. The group median tumor growth curves show the median tumor volume (MTV) as a function of time. When an animal exited the study due to tumor size or TR death, the final tumor volume recorded for the animal was included with the data used to calculate the median volume at subsequent time points. If more than one death occurred in a treatment group, the tumor growth curve for that group was truncated at the time of the second death.
Human Panc-1 pancreatic carcinomas were maintained in athymic nude mice. A tumor fragment (1 mm^3) was implanted s.c. into the right flank of each test mouse. Tumors were monitored twice weekly and then daily as their size approached 200-400 mm^3 with a mean of 250-300 mm^3. On Day 1 of the study, the animals were sorted into groups of six mice, with tumor sizes of 171.5-486.0 mm^3 and group mean tumor sizes of 269.7-275.0 mm^3. Mice were sorted into groups containing six mice each, and treated according to the protocol in Tables 2A and 2B. All treatments were administered intravenously. Control Group 1 mice received the ethanol 5% and Liposyn II 95% vehicle, once on Day 1 (qd×1). […] Dosing volumes were 0.5 ml/20 g body weight for qd×1 dosing regimens and 0.3 mL/20 g body weight for the qod×5 or q4d×4 dosing schedules. Dosing volumes were scaled to the body weight of each animal. The vehicle was given to Group 1 mice in a single dose on Day 1 (qd×1).
[10] abbreviates: Homo sapiens, HCT-116, 72 h drug incubation.

`CC(=O)OC12COC1CC(O)C1(C)C(=O)C(OC(=O)C3CC3)C3=C(C)C(OC(=O)C(O)C(NC(=O)OC(C)(C)C)c4ccco4)CC(O)(C(OC(=O)c4ccccc4)C21)C3(C)C` (stereo not drawn) [Compound 0843, reference compound]: the IC50 in data set [1] (72 h drug incubation) was found to be 0.24 nM; in [3] (72 h drug incubation), 0.86 nM. In data set [2] (scale 0 to 10), the “Rat tox score PO” value was 0. In addition, in data set [4] (scale 0 to 10), the “Rat tox score IV” value came to 0.
As to `CC(=O)OC12COC1CC(O)C1(C)C(=O)C(OC(=O)C3CC3)C3=C(C)C(OC(=O)C(O)C(NC(=O)OC(C)(C)C)c4ccncc4)CC(O)(C(OC(=O)c4ccccc4)C21)C3(C)C` (stereo not drawn) [Compound 2813], the figures for the IC50 in data set [1] (72 h drug incubation) and in data set [3] (72 h drug incubation) were 0.05 nM and 8.22 nM, respectively.
For `CC(=O)OC12COC1CC(O)C1(C)C(=O)C(OC(=O)C3CC3)C3=C(C)C(OC(=O)C(O)C(NC(=O)OC(C)(C)C)c4ccsc4)CC(O)(C(OC(=O)c4ccccc4)C21)C3(C)C` (stereo not drawn) [Compound 2794] the same measures were 0.28 nM and 2.03 nM.
With `CC(=O)OC12COC1CC(O)C1(C)C(=O)C(OC(=O)C3CC3)C3=C(C)C(OC(=O)C(O)C(NC(=O)OC(C)C)c4cccs4)CC(O)(C(OC(=O)c4ccccc4)C21)C3(C)C` (stereo not drawn) [Compound 3071, reference compound], the concentration for half-maximal inhibition (IC50) in data set [1] (72 h drug incubation) is 0.17 nM; in data set [3] (72 h drug incubation) it was 1.51 nM. Also, the “Efficacy Score = 10*(TWd1−TWdn)/TWd1” value is reported as 5.8 in data set [5] (single dose oral 60 mg/kg), 7.3 in [5] (single dose oral 120 mg/kg), 6.3 in data set [6] (single dose oral 60 mg/kg) and 7.5 in data set [6] (single dose oral 120 mg/kg). The “Tox Score, Dose 15 mg” value in data set [2] (Oral, dose 15 mg, scale 0 to 10) is 6.2. In data set [2] (Oral, dose 30 mg, scale 0 to 10), the “Tox Score, Dose 30 mg” value is reported as 5.1. For the same compound, the “Tox Score, Dose 40 mg” value in data set [2] (Oral, dose 40 mg, scale 0 to 10) worked out at 1.5. The “Tox Score, Average” value in data set [2] (Oral, average of 3 dose groups) is given as 4.3; in data set [4] (average of 3 dose groups), 5.6. In addition, the “Tox Score, Weighted Avg” value came out at 3.6 in [2] (Oral, weighted by dose) and 4.8 in [4] (Wt Avg = (Σ(dose × grp score))/24). In addition, the “Rat tox score PO” value in [2] (scale 0 to 10) stood at 4. Moreover, in data set [4] (dose 3 mg, scale 0 to 10), the “Tox Score, Dose 3 mg” value is on record as 7.7. The “Tox Score, Dose 9 mg” value in [4] (dose 9 mg, scale 0 to 10) turned out to be 6. Besides, the “Tox Score, Dose 12 mg” value in data set [4] (dose 12 mg, scale 0 to 10) is recorded as 3.2. In addition, the “Rat tox score IV” value in data set [4] (scale 0 to 10) was 5.
Regarding `CCOC(=O)NC(c1ccco1)C(O)C(=O)OC1CC2(O)C(OC(=O)c3ccccc3)C3C4(OC(C)=O)COC4CC(O)C3(C)C(=O)C(OC(=O)C3CC3)C(=C1C)C2(C)C` (stereo not drawn) [Compound 3677], the concentration for half-maximal inhibition (IC50) in [1] (72 h drug incubation) was found to be 0.3 nM; in data set [3] (72 h drug incubation), 18.6 nM.
On to `CCOC(=O)NC(c1cccs1)C(O)C(=O)OC1CC2(O)C(OC(=O)c3ccccc3)C3C4(OC(C)=O)COC4CC(O)C3(C)C(=O)C(OC(=O)C3CC3)C(=C1C)C2(C)C` (stereo not drawn) [Compound 4051], for which the IC50 in data set [1] (72 h drug incubation) stood at 0.3 nM; in data set [3] (72 h drug incubation) it was 1.62 nM. In addition, in data set [2] (scale 0 to 10), the “Rat tox score PO” value stood at 5.
As to `CC(=O)OC12COC1CC(O)C1(C)C(=O)C(OC(=O)C3CC3)C3=C(C)C(OC(=O)C(O)C(NC(=O)OCC(C)C)c4ccsc4)CC(O)(C(OC(=O)c4ccccc4)C21)C3(C)C` (stereo not drawn) [Compound 5011], the IC50 is 2.99 nM in [1] (72 h drug incubation) and 8.47 nM in data set [3] (72 h drug incubation).
In the same order, the values of `CCCC(=O)NC(c1ccco1)C(O)C(=O)OC1CC2(O)C(OC(=O)c3ccccc3)C3C4(OC(C)=O)COC4CC(O)C3(C)C(=O)C(OC(=O)C3CC3)C(=C1C)C2(C)C` (stereo not drawn) [Compound 4062] are 0.59 nM and 7.64 nM.
For `CC(=O)OC12COC1CC(O)C1(C)C(=O)C(OC(=O)C3CC3)C3=C(C)C(OC(=O)C(O)C(NC(=O)OC(C)(C)C)c4cccs4)CC(O)(C(OC(=O)c4ccccc4)C21)C3(C)C` (stereo not drawn) [Compound 0854, reference compound], the half-maximal inhibitory concentration (IC50) in data set [1] (72 h drug incubation) is 0.05 nM; in [3] (72 h drug incubation) it was 0.09 nM. Also, the “Rat tox score PO” value in [2] (scale 0 to 10) is 0. For the same compound, in data set [4] (scale 0 to 10), the “Rat tox score IV” value came out at 1.
In the case of `CC(=O)OC12COC1CC(O)C1(C)C(=O)C(OC(=O)C3CC3)C3=C(C)C(OC(=O)C(O)C(NC(=O)OCC(C)C)c4cccs4)CC(O)(C(OC(=O)c4ccccc4)C21)C3(C)C` (stereo not drawn) [Compound 3129], the figures for the 50% inhibitory concentration (IC50) in data set [1] (72 h drug incubation) and in data set [3] (72 h drug incubation) were 1.53 nM and 2.88 nM, respectively.
Turning to `CC(=O)OC12COC1CC(O)C1(C)C(=O)C(OC(=O)C3CC3)C3=C(C)C(OC(=O)C(O)C(NC(=O)OC(C)(C)C)c4ccoc4)CC(O)(C(OC(=O)c4ccccc4)C21)C3(C)C` (stereo not drawn) [Compound 2781, reference compound], the half-inhibitory concentration (IC50) in data set [1] (72 h drug incubation) was 0.18 nM; in data set [3] (72 h drug incubation), 1.91 nM. In addition, the “Rat tox score PO” value in data set [2] (scale 0 to 10) amounted to 0. Further, in data set [4] (scale 0 to 10), the “Rat tox score IV” value is 1.
In the case of `CCCC(=O)NC(c1cccs1)C(O)C(=O)OC1CC2(O)C(OC(=O)c3ccccc3)C3C4(OC(C)=O)COC4CC(O)C3(C)C(=O)C(OC(=O)C3CC3)C(=C1C)C2(C)C` (stereo not drawn) [Compound 3132], the figures for the half-maximal inhibitory concentration (IC50) in [1] (72 h drug incubation) and in data set [3] (72 h drug incubation) were 0.37 nM and 5.33 nM, respectively.
In the same order, the values of `CC(=O)OC12COC1CC(O)C1(C)C(=O)C(OC(=O)C3CC3)C3=C(C)C(OC(=O)C(O)C(NC(=O)OCC(C)C)c4ccoc4)CC(O)(C(OC(=O)c4ccccc4)C21)C3(C)C` (stereo not drawn) [Compound 4665] are 2.13 nM and 28.4 nM.
With `CC(=O)OC12COC1CC(O)C1(C)C(=O)C(OC(=O)C3CC3)C3=C(C)C(OC(=O)C(O)C(NC(=O)OC(C)C)c4ccco4)CC(O)(C(OC(=O)c4ccccc4)C21)C3(C)C` (stereo not drawn) [Compound 3853, reference compound], the IC50 in [1] (72 h drug incubation) is 0.08 nM; in [3] (72 h drug incubation) it was 0.99 nM. Also, the “Rat tox score PO” value in data set [2] (scale 0 to 10) came to 1. Further, the “Rat tox score IV” value in data set [4] (scale 0 to 10) was 1.
As to `CC(=O)OC12COC1CC(O)C1(C)C(=O)C(OC(=O)C3CC3)C3=C(C)C(OC(=O)C(O)C(NC(=O)OC(C)(C)C)c4ccccn4)CC(O)(C(OC(=O)c4ccccc4)C21)C3(C)C` (stereo not drawn) [Compound 2802], the IC50 was found to be 0.3 nM in data set [1] (72 h drug incubation) and 3.32 nM in [3] (72 h drug incubation).
As for `CC(=O)O[C@H]1C(=O)[C@@]2(C)[C@H]([C@H](OC(=O)c3ccccc3)[C@]3(O)C[C@H](OC(=O)[C@H](O)[C@@H](NC(=O)c4ccccc4)c4ccccc4)C(C)=C1C3(C)C)[C@]1(OC(C)=O)CO[C@@H]1C[C@@H]2O` [paclitaxel], the half-maximal inhibitory concentration (IC50) in [1] (setting [10]) came out at 2.1 nM; in data set [3] (setting [10]), 20 nM; in [7] (Homo sapiens, DLD-1) it was 10.1 nM.
Consider `CC(=O)O[C@@]12CO[C@@H]1C[C@H](O)[C@@]1(C)C(=O)[C@H](O)C3=C(C)[C@@H](OC(=O)[C@H](O)[C@@H](NC(=O)OC(C)(C)C)c4ccccc4)C[C@@](O)([C@@H](OC(=O)c4ccccc4)[C@H]21)C3(C)C` [docetaxel], for which the 50% inhibitory concentration (IC50) in data set [1] (72 h drug incubation) worked out at 0.6 nM; in data set [3] (72 h drug incubation) it was 6.7 nM; in data set [7] it was 9.1 nM.
In the case of `CC(=O)OC12COC1CC(O)C1(C)C(=O)C(OC(=O)C3CC3)C3=C(C)C(OC(=O)C(O)C(NC(=O)OCC(C)C)c4ccco4)CC(O)(C(OC(=O)c4ccccc4)C21)C3(C)C` (stereo not drawn) [Compound 3102, reference compound], the half-maximal inhibitory concentration (IC50) in data set [1] (72 h drug incubation) came to 0.33 nM; in data set [3] (72 h drug incubation), 1.49 nM. Besides, the “Efficacy Score = 10*(TWd1−TWdn)/TWd1” value in data set [8] (Dose 60, best score 10) is on record as 1.3; in data set [8] (Dose 120, best score 10), 5.3; in [9] (Dose 60, best score 10), 2.6; in data set [9] (Dose 120, best score 10) it was 5.3. For the same compound, in data set [2] (scale 0 to 10), the “Rat tox score PO” value turned out to be 6. The “Rat tox score IV” value in data set [4] (scale 0 to 10) was 6.
